{"source": "patent US10697020B2", "about": "“MicroRNA-129 as a biomarker for colorectal cancer” (THE RESEARCH FOUNDATION FOR THE STATE UNIVERSITY OF NEW YORK, priority 2013, dated 2020)", "key": {"BCL2": {"system": "BCL2", "assay": "Western immunoblot analysis of BCL2 protein after miRNA/siRNA transfection", "type": "cell-based, human", "settings": "HCT116, RKO and SW480 cells; 100 nM transfected; 48 h; vs negative control miRNA", "description": "(§1) HCT116, RKO and SW480 cells were plated in 6-well plates at 2×10^5, 1×10^5 and 1×10^5 per well, respectively. Twenty-four hours after plating, 100 nM of miR-129 precursor (Ambion, Carlsbad, Calif., USA) or siRNA against BCL2 (Dharmacon, Lafayette, Colo., USA) were transfected to the cells with oligofectamine (Invitrogen, Carlsbad, Calif., USA) in accordance with the manufacturer's protocol. Negative miRNA (Ambion) was also transfected as a negative control.\n(§2) Forty-eight hours after transfection, cells were lysed with RIPA buffer (Sigma-Aldrich), and Western immunoblotting was performed using standard procedures. The primary antibodies used for the analysis were mouse anti-human BCL2 antibody (1:200; Thermo Fisher Scientific, Fremont, Calif., USA), rabbit anti-human cleaved caspase-3 antibody (1:200; Cell Signaling Technology, Beverly, Mass., USA), rabbit anti-human cleaved caspase-9 antibody (1:200; Cell Signaling Technology), mouse anti-human E2F3 antibody (1:5000; Millipore, Billerica, Mass., USA), mouse anti-human TS antibody (1:400; Millipore), mouse anti-human GAPDH antibody (1:1000, Santa Cruz Biotechnology, Santa Cruz, Calif., USA) or mouse anti-human α-tubulin antibody (1:1000; Millipore). […] HRP activity was detected with SuperSignal West Pico Chemiluminescent Substrate (Thermo Fisher Scientific) and visualized in an UVP Bioimaging system."}, "[1]": {"system": "84 genes involved in cell death pathways", "assay": "Cell Death PathwayFinder PCR Array (real time qRT-PCR)", "type": "cell-based, human", "settings": "miR-129 transfected vs negative miRNA transfected cells", "excerpt": "RNAs were extracted from cells transfected with either precursor miR-129 or negative miRNA using TRIzol reagent (Invitrogen) in accordance with the manufacturer's protocol. RNAs were transcribed to first-strand cDNA using the RT^2 First Strand Kit (SABiosciences, Qiagen, Venlo, Netherlands). Next, the cDNA is mixed with RT^2 SYBR Green Mastermix (SABiosciences), and this mixture is aliquoted into the wells of the Cell Death PathwayFinder PCR Array (PAHS-212Z). Applied Biosytems 7500 Real-Time PCR machine was used for qRT-PCR, and relative expression values were determined using the ΔΔCT method."}, "[2]": {"system": "cleaved caspase-3 and cleaved caspase-9", "assay": "Western immunoblot analysis of cleaved caspases in HCT116 cells", "type": "cell-based, human", "settings": "HCT116 cells with ectopic expression of miR-129", "description": "as §1, §2"}, "HCT116 cells [3]": {"system": "HCT116 cells", "assay": "Cell proliferation assay (WST-1), HCT116", "type": "cell-based, human", "settings": "day 5", "description": "as §1\n(§3) Twenty-four hours after transfection, cells were seeded in 96-well plates at a density of 2000 cells per well. The cell proliferation assay was performed on days 1, 3 and 5 by incubating 10 μl WST-1 (Roche Applied Science, Mannheim, Germany) in the culture medium for 1 h and reading the absorbance at 450 and 630 nm. The cell proliferation rate was calculated by […]. Experiments for the cell proliferation assay were performed at least three times."}, "RKO cells [4]": {"system": "RKO cells", "assay": "Cell proliferation assay (WST-1), RKO", "type": "cell-based, human", "settings": "day 5", "description": "as §1, §3"}, "HCT116 cells [5]": {"system": "HCT116 cells", "assay": "Cell cycle analysis (flow cytometry), HCT116", "type": "cell-based, human", "settings": "36 h after transfection", "description": "as §1\n(§4) Thirty-six hours after transfection, cells were harvested and resuspended at 0.5 to 1×10^6 cells/m in modified Krishan buffer supplemented with 0.02 mg/ml RNase H (Invitrogen) and 0.05 mg/ml propidium iodide (Sigma-Aldrich, St. Louis, Mo., USA) (See, Krishan A. The Journal of Cell Biology. 1975; 66(1):188-93). Stained cells were detected by flow cytometry and results were analyzed with Modfit LT™ software. The experiments for cell cycle analysis were performed at least three times."}, "RKO cells [6]": {"system": "RKO cells", "assay": "Cell cycle analysis (flow cytometry), RKO", "type": "cell-based, human", "settings": "36 h after transfection", "description": "as §1, §4"}, "HCT116 cells [7]": {"system": "HCT116 cells", "assay": "5-FU treatment and cytotoxicity assay (WST-1)", "type": "cell-based", "settings": "72 hours, read-out: IC50 (50% growth inhibition, WST-1)", "description": "Twenty-four hours after transfection, HCT116 cells were plated in 96-well plates at 2×10^3 cells per well in triplicates in 100 μl of medium. After 24 hours, fresh medium containing 5-FU alone (ranged from 1 to 4 μM) or miR-129 precursor alone (ranged from 10 nM to 40 nM) or 5-FU and miR-129 together (at a constant ratio 1:10, with increasing concentrations of both compounds) were added, and cells were cultured for an additional 72 hours. Cell viability was measured using the WST-1 assay, and concentration-dependent curves were generated based on the cell viability. The combination index was calculated by CompuSyn software. See, Chou T C et al. (2007)."}, "TS": {"system": "TS", "assay": "Western immunoblot analysis of TS protein in HCT116 cells", "type": "cell-based, human", "settings": "HCT116 cells with ectopic expression of miR-129", "description": "as §1, §2"}, "E2F3": {"system": "E2F3", "assay": "Western immunoblot analysis of E2F3 protein in HCT116 cells", "type": "cell-based, human", "settings": "HCT116 cells after miR-129 transfection", "description": "as §1, §2"}}, "note": "Read-outs that look alike come from different tables or passages of the source.", "data": [{"substance": "miR-129: nucleic acid having a sequence of CUUUUUGCGGUCUGGGCUUGC (SEQ ID NO. 1); miR-129 precursor from Ambion used (chemistry not given here; listed as Homo sapiens)", "values": [{"measurement": "BCL2 protein expression", "setting": "BCL2", "result": "reduced the BCL2 protein expression"}, {"measurement": "Fold change (miR-129/neg)", "setting": "[1]; gene APAF1", "result": 2.44}, {"measurement": "Fold change (miR-129/neg)", "setting": "[1]; gene BAX", "result": 27.77}, {"measurement": "Fold change (miR-129/neg)", "setting": "[1]; gene BCL2A1", "result": 0.04}, {"measurement": "Fold change (miR-129/neg)", "setting": "[1]; gene BIRC3", "result": 0.28}, {"measurement": "Fold change (miR-129/neg)", "setting": "[1]; gene CASP2", "result": 7.68}, {"measurement": "Fold change (miR-129/neg)", "setting": "[1]; gene CASP3", "result": 1.27}, {"measurement": "Fold change (miR-129/neg)", "setting": "[1]; gene CASP7", "result": 4.75}, {"measurement": "Fold change (miR-129/neg)", "setting": "[1]; gene CASP9", "result": 2.53}, {"measurement": "Fold change (miR-129/neg)", "setting": "[1]; gene MCL1", "result": 3.81}, {"measurement": "Fold change (miR-129/neg)", "setting": "[1]; gene PARP2", "result": 0.47}, {"measurement": "protein levels of cleaved caspase-9 and cleaved caspase-3", "setting": "[2]", "result": "elevated the protein levels"}, {"measurement": "cell proliferation reduced compared to negative controls", "setting": "HCT116 cells [3]", "result": 41.2, "unit": "%"}, {"measurement": "cell proliferation reduced compared to negative controls", "setting": "RKO cells [4]", "result": 43.9, "unit": "%"}, {"measurement": "cell cycle arrest (G1/S and G2/S ratios)", "setting": "HCT116 cells [5]", "result": "reached significance at G2 checkpoint"}, {"measurement": "cell cycle arrest (G1/S and G2/S ratios)", "setting": "RKO cells [6]", "result": "at G1 checkpoint"}, {"measurement": "IC50", "setting": "HCT116 cells [7]; miR-129 alone", "result": 11.2, "unit": "nM"}, {"measurement": "IC50", "setting": "HCT116 cells [7]; miR-129 when combined with 5-FU (fixed ratio 1:10)", "result": 6.3, "unit": "nM"}, {"measurement": "TS protein expression", "setting": "TS", "result": "suppressed the protein expression of TS"}, {"measurement": "E2F3 protein levels", "setting": "E2F3", "result": "reduce E2F3 protein levels"}]}]}
